“Also recorded” adds a separate entry of the source. Read-outs that look alike come from different tables or passages of the source.
Tests used:
estrogen receptor [1] = target: T1, estrogen receptor (Homo sapiens, UniProt P03372); conditions: cited from earlier work; for Estrogen receptor binding / detection potency (in words): compared to tamoxifen
T1 sequence (P03372 1-595): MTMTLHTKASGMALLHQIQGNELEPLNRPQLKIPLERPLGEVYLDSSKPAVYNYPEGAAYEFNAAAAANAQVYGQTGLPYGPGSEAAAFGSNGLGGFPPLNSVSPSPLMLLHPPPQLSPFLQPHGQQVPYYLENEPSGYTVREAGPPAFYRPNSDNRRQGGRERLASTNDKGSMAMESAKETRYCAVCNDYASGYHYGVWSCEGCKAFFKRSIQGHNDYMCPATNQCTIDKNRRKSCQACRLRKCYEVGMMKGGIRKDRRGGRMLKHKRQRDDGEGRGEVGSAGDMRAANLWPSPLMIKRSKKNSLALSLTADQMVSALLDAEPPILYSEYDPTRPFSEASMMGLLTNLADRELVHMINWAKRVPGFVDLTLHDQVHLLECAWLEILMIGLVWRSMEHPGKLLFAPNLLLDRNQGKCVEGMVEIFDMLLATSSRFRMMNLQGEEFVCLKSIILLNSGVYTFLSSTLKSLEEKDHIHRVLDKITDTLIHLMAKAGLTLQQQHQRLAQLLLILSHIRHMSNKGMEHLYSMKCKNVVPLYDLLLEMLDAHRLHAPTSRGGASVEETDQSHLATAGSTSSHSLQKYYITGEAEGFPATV

[2] = compared to tamoxifen; cited from earlier work
[3] = test system: MCF-7 human breast cancer cells; assay: MCF-7 human breast cancer xenograft growth in nude mice; format: in vivo, mouse; conditions: 50 μg daily s.c.
Source text: The cultures were free of mycoplasma and pathogenic murine viruses (assayed by Microbiological Associates, Bethesda, Md.). Female athymic NCr-nu/nu mice were obtained from the NCI-Frederick Cancer Research Facility (Frederick, Md.). The mice were maintained in specific-pathogen-free conditions in a facility approved by the American Association for Accreditation of Laboratory Animal Care. […] A 60-day release pellet containing […] 17-β estradiol (Innovative Research of America, Toledo, Ohio) was implanted s.c. in each animal. After 20 days the 17β estradiol […] removed from one group, and these mice were not treated further.

breast cancer [4] = assay: Response of PET-imaged patients to tamoxifen treatment; format: in vivo, human
breast cancer [5] = conditions: unselected patients with breast cancer; cited from earlier work
estrogen receptor [6] = target: T2, estrogen receptor (Sus scrofa, UniProt Q29040)
T2 sequence (Q29040 1-595): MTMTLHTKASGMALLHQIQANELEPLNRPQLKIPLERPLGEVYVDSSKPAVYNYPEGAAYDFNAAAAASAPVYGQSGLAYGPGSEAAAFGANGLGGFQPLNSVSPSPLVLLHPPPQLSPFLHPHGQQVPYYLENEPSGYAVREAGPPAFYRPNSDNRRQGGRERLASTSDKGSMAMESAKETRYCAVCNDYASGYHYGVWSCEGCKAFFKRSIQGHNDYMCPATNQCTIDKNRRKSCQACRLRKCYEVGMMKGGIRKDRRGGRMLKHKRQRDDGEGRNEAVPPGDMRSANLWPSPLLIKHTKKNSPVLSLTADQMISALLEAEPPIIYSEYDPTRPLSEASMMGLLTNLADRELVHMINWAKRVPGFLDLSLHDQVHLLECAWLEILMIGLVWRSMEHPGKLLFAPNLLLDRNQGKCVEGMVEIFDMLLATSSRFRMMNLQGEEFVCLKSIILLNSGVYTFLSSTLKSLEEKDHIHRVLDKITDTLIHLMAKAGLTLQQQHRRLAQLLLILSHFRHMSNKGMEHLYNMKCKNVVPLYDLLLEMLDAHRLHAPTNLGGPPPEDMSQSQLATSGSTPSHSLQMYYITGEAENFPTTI
Protocol: (§1) A previously reported procedure was modified by the inventors and used for this purpose.^10,11 TEA buffer was used by the Inventors for tissue preparation.
(§2) Briefly, uteri (90 gm) were obtained from immature domestic swine (15 kg) was homogenized in Tris buffer (10 mM, pH 7.4) (1 uterus/180 ml), which contained EDTA (1.5 mM) and sodium Azide (3 mM). The homogenate was centrifuged at 100,000 g for 1 hour at 4° C. Uteri cytosol (contains 2% of protein from corresponding uterus tissue) were then pretreated with dextran-coated charcoal as described.^10 Protein concentrations were determined according to the method of Lowry et al.^12
(§3) *The relative binding affinity (RBA) for the pig uteri estrogen receptor

estrogen receptor [7] = target: T2, estrogen receptor; assay: biochemical
Protocol: as §1, §2, §3

MCF7 cells = assay: MCF7 breast tumor cell growth inhibition, 72 h, MTT tetrazolium dye assay; format: cell-based, human; conditions: 72 h
Protocol: The MCF7 cell line is a human tumor cell line. This cell line was cultured in MEM (Eagles) media in a 5% CO^2 atmosphere with 10% fetal calf serum that had been washed twice with dextran coated charcoal to reduce endogenous estrogen levels. The media was supplemented with 1 mM sodium pyruvate and 100 μm non-essential amino acids. The cell line was screened routinely for myoplasma contamination using the GenProbe kit (Fisher). Cells were trypsinized and plated at a density of 5,000 cells/well in 96 well microtiter plates and allowed to attach and recover for 24 hours.
The media was removed by aspiration and replaced with filter sterilized drug (concentration from 10^-4 M to 10^-5 M) in media. The cells were incubated for 72 hours and then stained using the mTT tetrazolium dye assay of Mosmann^36 except that after the media was removed, the blue formazan product was solubilized in 50 μl/well DMSO.

[8] = In vivo tissue uptake in rat (% injected dose per organ, n=5)
[9] = Acute/immediate toxicity following i.v. injection in BALB/c mice; conditions: mouse, in vivo, iv
Protocol: Acute toxicity studies were performed in BALB/c female mice with doses tested at 20, 50 and 200 mg/kg (i.v., n=5 mice per dose).

## CC/C(=C(/c1ccccc1)c1ccc(OCCN2CC2)cc1)c1ccccc1 (single isomer, unassigned) [cis isomer of tamoxifen azizidine]
Estrogen receptor [1]; versus trans isomer or native tamoxifen
  Decrease in estrogen receptor binding affinity: 50 fold

## CC/C(=C(\c1ccc(O)cc1)c1ccc(OCCN(C)C)cc1)c1ccccc1 [4-hydroxytamoxifen]
[2]
  Anti-estrogenic / in vivo activity (in words): less effective than tamoxifen in vivo

## CC/C(=C(\c1ccc(OC)cc1)c1ccc(OCCN(C)C)cc1)c1ccccc1 [4-methoxy phenyl derivative]
[2]
  Anti-estrogenic / in vivo activity (in words): about the same as native tamoxifen

## CC/C(=C(\c1ccc(Cl)cc1)c1ccc(OCCN(C)C)cc1)c1ccccc1 [Compound 4-chloro]
Estrogen receptor [1]
  Estrogen receptor binding / detection potency (in words): approximately equal activity for estrogen receptor binding affinity
[2]
  Anti-estrogenic / in vivo activity (in words): lower anti-estrogenic activity than tamoxifen

## CC/C(=C(\c1ccc(F)cc1)c1ccc(OCCN(C)C)cc1)c1ccccc1 [Compound 4-fluoro]
Estrogen receptor [1]
  Estrogen receptor binding / detection potency (in words): approximately equal activity for estrogen receptor binding affinity
[2]
  Anti-estrogenic / in vivo activity (in words): lower anti-estrogenic activity than tamoxifen

## CC/C(=C(\c1ccc(I)cc1)c1ccc(OCCN(C)C)cc1)c1ccccc1 [Compound 4-iodo]
Estrogen receptor [1]
  Estrogen receptor binding / detection potency (in words): greater potency than tamoxifen

## CC/C(=C(\c1ccc(C)cc1)c1ccc(OCCN(C)C)cc1)c1ccccc1 [Compound 4-methyl]
Estrogen receptor [1]
  Estrogen receptor binding / detection potency (in words): approximately equal activity for estrogen receptor binding affinity
[2]
  Anti-estrogenic / in vivo activity (in words): lower anti-estrogenic activity than tamoxifen

## CC/C(=C(\c1ccccc1)c1ccc(OCCN(C)C)cc1)c1ccccc1 [Compound I, Tamoxifen]
[3]
  ER(+) MCF-7 tumor growth (in words): reduced ER(+) breast tumor growth; also recorded: growth of the MCF-7 tumors was greatly reduced
Breast cancer [4]; patient 1
  Response of TX treat.: poor
Breast cancer [4]; patient 2
  Response of TX treat.: poor
Breast cancer [4]; patient 3
  Response of TX treat.: good
Breast cancer [4]; patient 4
  Response of TX treat.: poor
Breast cancer [4]; patient 5
  Response of TX treat.: good
Breast cancer [4]; patient 7
  Response of TX treat.: poor
Breast cancer [4]; patient 9
  Response of TX treat.: poor
Breast cancer [4]; patient 10
  Response of TX treat.: good
Breast cancer [4]; three patients with tumor uptake
  Response to tamoxifen therapy (in words): positive response to tamoxifen therapy
Breast cancer [5]
  Positive therapy results: 30%

## CCN(CC)CCOc1ccc(/C(=C(/CCCN=[N+]=[N-])c2ccccc2)c2ccccc2)cc1 [TX-N3 (trans), Tamoxifen Azide]
Estrogen receptor [6]
  RBA (relative binding affinity): 80
Estrogen receptor [7]
  IC50: 38 µM
  Ki: 18.7 µM

## CCN(CC)CCOc1ccc(/C(=C(/CCCN)c2ccccc2)c2ccccc2)cc1 [TX-NH2 (trans), Amino Tamoxifen]
Estrogen receptor [6]; tamoxifen = 100
  RBA (relative binding affinity): 10
Estrogen receptor [7]
  IC50: 300 µM
  Ki: 150 µM

## CCN(CC)CCOc1ccc(/C(=C(\CCCI)c2ccccc2)c2ccccc2)cc1 [X (cis), N,N-diethyl-iodomethyltamoxifen]
MCF7 cells
  Tumor cell inhibition (in words): more potent than the trans isomers
Estrogen receptor [6]; Table 7, tamoxifen printed as 1
  RBA (IC50 ratio between tamoxifen and competitor): 10
Estrogen receptor [6]; compared to tamoxifen
  Enhancement of estrogen receptor binding affinity: 10 fold
Estrogen receptor [6]; tamoxifen = 100
  RBA (relative binding affinity): 1,000

## CCN(CC)CCOc1ccc(/C(=C(/CCC[131I])c2ccccc2)c2ccccc2)cc1 [^131 I-IMTX (trans)]
[8]; first value (3 h)
  Uterus/muscle ratio: 11.0
[8]; second value (6 h)
  Uterus/muscle ratio: 7.6
[8]; third value (24 h)
  Uterus/muscle ratio: 3.6

## CCN(CC)CCOc1ccc(C(=C(CCCI)c2ccccc2)c2ccccc2)cc1 [iodotamoxifen]
[9]
  MTD: 50 mg/kg
[3]
  ER(+) MCF-7 tumor growth (in words): reduced ER(+) breast tumor growth; also recorded: growth of the MCF-7 tumors was greatly reduced

From patent publication US6096874A (Board of Regents, the University of Texas System, priority 1995, dated 2000)
